Data on eleven molecules can be found in patent US20070092503A1, “Human alkaline sphingomyelinase and use thereof” (priority 2003, published 2007).

The target in data set [1] is T1, human Alk-Smase (Homo sapiens, UniProt Q6UWV6).
T1 construct: Human Alk-Smase has now been purified from small intestinal content; from tissue; host or cells: human small intestinal (ileostomy) content
T1 sequence (Q6UWV6 22-458): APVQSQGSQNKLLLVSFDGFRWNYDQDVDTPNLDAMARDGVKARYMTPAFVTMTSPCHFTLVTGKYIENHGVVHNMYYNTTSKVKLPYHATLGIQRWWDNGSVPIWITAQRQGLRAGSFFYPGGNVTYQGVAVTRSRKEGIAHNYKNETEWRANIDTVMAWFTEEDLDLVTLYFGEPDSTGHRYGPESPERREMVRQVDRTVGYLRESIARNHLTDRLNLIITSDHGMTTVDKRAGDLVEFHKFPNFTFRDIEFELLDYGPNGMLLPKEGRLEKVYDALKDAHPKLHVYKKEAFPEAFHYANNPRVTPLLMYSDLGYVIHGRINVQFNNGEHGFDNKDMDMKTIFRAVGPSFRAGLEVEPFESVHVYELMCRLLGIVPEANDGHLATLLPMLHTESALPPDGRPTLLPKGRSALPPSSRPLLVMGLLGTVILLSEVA
The data set is described as follows: Alk-Smase activity in the presence of metal ions, detergents, bile salts, glutathione. It counts as biochemical. As for the experimental part: As bile salts are important factors for lipid digestion, the effects of different bile salts on human Alk-Smase were investigated. […] The activities were determined in the presence of different concentrations of bile salts.

Data set [2] deals with T1, human Alk-Smase. The description is as above. The data set is classed as biochemical. The source holds these as a separate data set.
The subject of the next data set is bacterial neutral Smase. The settings on record: reduced form.
The test system of data set [3] is HT29 human colon cancer cells. The data set is described as follows: Proliferation of HT29 colon cancer cells, WST reagent. The data set is classed as cell-based. The settings on record: for effect on proliferation / cell growth of HT29 cells: different doses, 18 h, WST reagent; for effect on DNA synthesis of HT-29 cells: enzyme added to cells in culture. As for the experimental part: HT29 human colon cancer cells were incubated in RMPI-1640 medium with L-glutamine, containing antibiotics and 10% (v/v) heat inactivated fetal calf serum. At the exponential growth phase, the cells were incubated with purified rat Alk-Smase at different doses for 18 h. The cell proliferation rates were measured by WST reagent. Results are Mean± SD of three individual duplicate experiments.
Experimental conditions for the antiproliferative inhibition were that HT 29 cells were incubated with rat Alk-Smase at different doses for 18 h. The cell proliferation rates were measured by WST reagent.
HT29 human colon cancer cells were incubated in RMPI-1640 medium with L-glutamine containing antibiotics and 10% (v/v) heat inactivated fetal calf serum. At the exponential growth phase, the cells were incubated with purified rat Alk-Smase at different doses for 18 h. The cell proliferation rates were measured by WST reagent. Results are Mean±SD of three individual duplicate experiments.

Another data set has as its system Cos-7 cells. The data set is described as follows: Alk-Smase activity of transfected cells (cell lysate and medium). It counts as cell-based. As for the experimental part:
Cos 7 cells are transfected with either the wild type of Alk-Smase cDNA (sequence 21-1397 of ID No 5, reading frame) which encodes Seq ID No 4, or transfected with the Alk-Smase cDNA sequence from 21-1285 (C-truncated), which encodes a 415 amino acid sequence (Seq ID No 6). After transfection, the Alk-Smase activity in the medium and in the cell lysate was determined.
pCMV-sports6-Smase is transfected into mammalian Cos-7 cells. To transfect the cells with pCMV-sports6-Smase 4×10^5 Cos-7 cells are seeded in a 25 cm^2 flask in 4 ml of Dulbecco's modified Eagle's medium with 10% heat inactivated fetal calf serum and 2 mM Glutamine.
The cells are incubated until 90% confluent.
Cells are then transfected with 5 microgram pCMV-sports6-Smase and 16 microgram lipofectamine 2000™ in each flask followed by incubation for 48 h.
Untransfected cells are exposed to lipofectamine and treated the same as above.
At the end of the incubation, medium is collected and cells are lysed by a 50 mM Tris-HCl buffer containing 1 mM PMSF, 2 mM EDTA, 0.5 mM Dtt, 10 microgram/ml leupeptin, 10 microgram/ml aprotinine and 10 mM TC.
Cells are kept on ice, e.g., for 10 minutes, and then sonicated for 10 sec.
After centrifugation at 12000 g for 10 minutes at 4° C., human Alk-Smase activity and protein concentrations were determined.
Cos-7 cells transfected with a mock-vector is used as a control.

A short description of data set [4]: Lysophospholipase test with 14C-palmitoyl labelled lysophosphatidylcholine, TLC separation. The data set is classed as biochemical. How it is done:
At present the most intriguing functional similarity between Alk-Smase and NPP is the earlier observation that NPP2 has lysophospholipase D activity (M Umezo-Gozo et al J Cell Biol 2002; 158:227-33). To determine whether Alk-Smase also has lysophospholipase D activity, a trace amount of ^14C-palmitoyl labelled 1palmitoyl-lysosphosphatidylcholine was incubated with Alk-Smase using the optimal incubation conditions previously described (R D Duan and Å Nilsson Methods Enzymol 2000; 311:276-86). Lipids were then extracted according to known methods (Bligh and Dyer J Biochem Physiol 1959; 37:911-917), and separated on silica gel G plates that were developed in chloroform:methanol:water:acetic acid 25:20:0.3:3. The silica gel separates lysophosphatidylcholine and lysophosphatidic acid that are formed if there is a lysophospholipase D and monoglyceride formed by lysophospholipase C. […] It is therefore further disclosed herein that Alk-Smase may also influence cellular functions by removing lysophosphatidylcholine which can then not be converted to lysophosphatidic acid. Lysophosphatidic acid is a metabolite that stimulates growth of colon tumour cells. Our earlier studies have shown that Alk-Smase is not a general phosphlipase C since it has low activity against phosphatidylcholine (RD Duan, A Nilsson Methods Enzymol 2000; 311:276-86).

A short description of data set [5]: Characterisation of Alk-Smase: sphingomyelin hydrolysis (pH dependence, hydrolytic capacity). The settings on record: for hydrolytic capacity (Vmax, Lineweaver-Burk plot): sphingomyelin hydrolysed: by 1 mg of the enzyme in one hour.
Method: To distinguish whether the enzyme was different from the Mg dependent neutral Smase, activity at pH 7.5 in the presence of 4 mM Mg2+ in comparison wit pH 8.5 in the presence of 2 mM EDTA was assayed.

Consider `C[C@H](CCC(=O)NCCC[N+](C)(C)CCCS(=O)(=O)[O-])[C@H]1CC[C@H]2[C@@H]3[C@H](O)C[C@@H]4C[C@H](O)CC[C@]4(C)[C@H]3C[C@H](O)[C@]12C` [CHAPS], for which, at human Alk-Smase [1], the “effect on TC stimulation of Alk-Smase” value is listed as “blocked the stimulatory effect of TC”. Further, the “effect on Alk-Smase activity” value on human Alk-Smase [1] (very low concentration (0.025 mM)) is recorded as “only slightly increased the activity”.

`[Ca+2]` [Ca2^+]: on human Alk-Smase [2], the “effect of increasing concentrations of divalent cation on Alk-Smase activity” value is given as “slightly increased”.

Turning to `O=C(O)CN(CCN(CC(=O)O)CC(=O)O)CC(=O)O` [EDTA], the “inhibition of Alk-Smase by EDTA” value at human Alk-Smase [1] is on record as “not inhibited”. Besides, the “reversal of the Zn2+ inhibition of Alk-Smase” value on human Alk-Smase [1] (2 mM EDTA) is on record as “Most of the inhibitory effect of Zn2+ was reversed”.

With `[Mg+2]` [Mg], the “effect of increasing concentrations of divalent cation on Alk-Smase activity” value at human Alk-Smase [2] was “slightly increased”.

Regarding `C[C@H](CCC(=O)NCCS(=O)(=O)O)[C@H]1CC[C@H]2[C@@H]3[C@H](O)C[C@@H]4C[C@H](O)CC[C@]4(C)[C@H]3CC[C@]12C` [TCDC, taurochenodeoxycholate], at human Alk-Smase [1] (maximum at the CMC of each bile salt), the “maximal stimulating effect of bile salt on human Alk-Smase” value is “far more effective than other bile salts”.

As to `[Zn+2]` [Zn2^+], the IC50 at human Alk-Smase [1] (read-out: concentration giving 50% inhibition of Alk-Smase activity) came out at 15 µM.

`N[C@@H](CCC(=O)N[C@@H](CS)C(=O)NCC(=O)O)C(=O)O` [glutathione]: the “reduction of Alk-Smase activity” value on human Alk-Smase [1] (7.5 mM glutathione, reduced form) worked out at 1%. The “effect on Alk-Smase activity (in words)” value at human Alk-Smase [1] (reduced form of glutathione) was “only slightly reduced”. Besides, in the data set on bacterial neutral Smase (7.5 mM glutathione), the “reduction of neutral Smase activity” value stood at 98%. For the same molecule, in the data set on bacterial neutral Smase, the “concentration above which neutral Smase activity is sharply abolished” value was “higher than 5 mM”.

On to Triton X 100, for which the “effect on human Alk-Smase activity” value at human Alk-Smase [1] (in the presence or absence of TC (10 mM)) is reported as “strongly inhibits”.

B1: rat Alk-Smase: purified rat intestinal alkaline sphingomyelinase (protein, UniProt Q5EZ72 22-439, looked up)
Ectonucleotide …: GPVQRQQQHKLLLVSFDGFRWNYDQDVETPNLDSMAQEGVKARYMTPAFVTMTSPCHFTLVTGKYIENHGVVHNMFYNTTNKVRLPYHATLGIQRWWDNGSIPIWITAQRQGLKTGSFFYPGGNVTYQGEAVTMSRKEGVLHNYKNETEWRANVDTVMKWFTEEDVSLVTLYFGEPDSTGHKYGPESQERKDMVKQVDRTVGYLRDSIKRHHLTDSLNLIITSDHGMTTVNKKASDLVEFHKFPNFTFRDIEFELLDYGPNGMLIPKEGMLEKVYSVLKDAHPRLHVYKKEDFPKTFHYANNPRITSLLMYSDLGYVIHGRVNVQFNSGEHGFDNQDMDMKTIFRAVGPSFKAGLEVEPFESVHVYELMCQLLGIVPEPNDGHPGVLQPMLRSGSPLSRQHHLVVVLMGILTGLAKVV
As to B1, in data set [3], the “effect on proliferation / cell growth of HT29 cells” value was “dose-dependently inhibited cell growth” and the “effect on DNA synthesis of HT-29 cells” value is on record as “decreased DNA synthesis”. In addition, the “effect on proliferation / cell growth of HT29 cells” value in data set [3] (listed as rat alkaline Smase) is listed as “inhibit proliferation”.

B2: amino acid 1-415: C-truncated human Alk-Smase, 415 amino acid sequence encoded by cDNA 21-1285 (protein, listed as Homo sapiens)
chain: MRGPAVLLTVALATLLAPGAGAPVQSQGSQNKLLLVSFDGFRWNYDQDVDTPNLDAMARDGVKARYMTPAFVTMTSPCHFTLVTGKYIENHGVVHNMYYNTTSKVKLPYHATLGIQRWWDNGSVPIWITAQRQGLRAGSFFYPGGNVTYQGVAVTRSRKEGIAHNYKNETEWRANIDTVMAWFTEEDLDLVTLYFGEPDSTGHRYGPESPERREMVRQVDRTVGYLRESIARNHLTDRLNLIITSDHGMTTVDKRAGDLVEFHKFPNFTFRDIEFELLDYGPNGMLLPKEGRLEKVYDALKDAHPKLHVYKKEAFPEAFHYANNPRVTPLLMYSDLGYVIHGRINVQFNNGEHGFDNKDMDMKTIFRAVGPSFRAGLEVEPFESVHVYELMCRLLGIVPEANDGHLATLLPMLHT
Consider B2, for which, in the data set with Cos-7 cells (transfected cells, FIG. 13), the “Alk-Smase activity produced, C-truncated versus full sequence cDNA” value is “higher”.

B3: human Alk-Smase: human intestinal alkaline sphingomyelinase, 458 amino acid protein purified from small intestinal content (protein, listed as Homo sapiens)
chain: MRGPAVLLTVALATLLAPGAGAPVQSQGSQNKLLLVSFDGFRWNYDQDVDTPNLDAMARDGVKARYMTPAFVTMTSPCHFTLVTGKYIENHGVVHNMYYNTTSKVKLPYHATLGIQRWWDNGSVPIWITAQRQGLRAGSFFYPGGNVTYQGVAVTRSRKEGIAHNYKNETEWRANIDTVMAWFTEEDLDLVTLYFGEPDSTGHRYGPESPERREMVRQVDRTVGYLRESIARNHLTDRLNLIITSDHGMTTVDKRAGDLVEFHKFPNFTFRDIEFELLDYGPNGMLLPKEGRLEKVYDALKDAHPKLHVYKKEAFPEAFHYANNPRVTPLLMYSDLGYVIHGRINVQFNNGEHGFDNKDMDMKTIFRAVGPSFRAGLEVEPFESVHVYELMCRLLGIVPEANDGHLATLLPMLHTESALPPDALLVADGPCLPSLSQAKGCMPLSPAAPTPAWLLWCW
In the case of B3, in data set [4], the “formation of lysophosphatidic acid (lysophospholipase D activity)” value was “not demonstrated”. In addition, in data set [4] (in one hour, optimal incubation conditions), the “lysophosphatidylcholine degraded to 14C-monoglyceride” value amounted to 80%. Further, in data set [3], the “effect on proliferation / cell growth of HT29 cells” value is on record as “inhibit proliferation” and the “effect on DNA synthesis of HT-29 cells” value is recorded as “decreased DNA synthesis”. In the data set with Cos-7 cells (Cos-7 cells transfected with pCMV-sports6-Smase, 48 h), the “increase of human Alk-Smase activity in the medium” value is recorded as 5 fold. For the same molecule, in data set [5], the “activity at pH 8.5 with 2 mM EDTA compared with pH 7.5 with 4 mM Mg2+” value is reported as “significantly higher” and the “hydrolytic capacity (Vmax, Lineweaver-Burk plot): sphingomyelin hydrolysed” value came to 11 mmol. The “hydrolytic capacity (Vmax, Lineweaver-Burk plot): sphingomyelin hydrolysed” value in data set [5] (listed as Alk-Smase) is “about 11 mmole”. Moreover, the “activity at pH 7.5 relative to maximal activity” value in data set [5] (pH 7.5 versus pH 8.5) is given as “about 68%”.
